Source: patent publication US11512268B2, “Storage-stable enzyme preparations, their production and use” (BASF SE, priority 2017, dated 2022)

Key:
Lipolase = target: T1, Lipolase (Thermomyces lanuginosus, UniProt O59952); test: storage stability of lipase (Lipolase activity, pNitrophenol-valerate substrate) in liquid formulations at 37° C.; format: biochemical, Thermomyces lanuginosa; settings: Lipolase 0.4 wt %, storage at 37° C.
T1 construct: purchased Sigma-Aldrich
T1 sequence (O59952 23-291): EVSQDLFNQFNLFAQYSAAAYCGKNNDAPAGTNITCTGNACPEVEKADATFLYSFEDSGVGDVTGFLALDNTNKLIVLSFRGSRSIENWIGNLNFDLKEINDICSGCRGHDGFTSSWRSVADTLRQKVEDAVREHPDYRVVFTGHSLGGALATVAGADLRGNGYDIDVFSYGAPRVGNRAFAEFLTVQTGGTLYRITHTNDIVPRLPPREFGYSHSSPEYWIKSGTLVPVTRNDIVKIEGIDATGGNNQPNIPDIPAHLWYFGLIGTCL
Description: (§1) The storage stability of Lipase and Protease in water was assessed at 37° C.
(§2) Base test formulations were manufactured by making base formulations I to VI by mixing the components according to Table 1.
(§3) The respective salt (component (a)) or comparative compound was added, if applicable, to the respective base formulation in amounts as indicated in Table 1.
(§4) The amount of enzyme as provided in Table 1 refers to active protein. Either lipase or protease was added, depending on which enzyme activity was measured.
(§5) Lipolase® 100 L (CAS-No. 9001-62-1, EC-No. 232-619-9) was purchased from Sigma-Aldrich. Savinase® 16.0 L (CAS-No. 9014-01-1, EC-No. 232-752-2) was purchased from Sigma-Aldrich.
Lipolase activity at certain points in time as indicated in Table 2 was be determined by employing pNitrophenol-valerate (2.4 mM pNP-C5 in 100 mM Tris pH 8.0, 0.01% Triton X100) as a substrate. The absorption was measured at 20° C. every 30 seconds over 5 minutes at 405 nm. The slope (absorbance increase at 405 nm per minute) of the time dependent absorption-curve is directly proportional to the activity of the lipase.
The lipolytic activity values provided in Table 2 were calculated referring to the 100% value determined in the reference formulation at the time 0.
(§6) The nomenclature of formulations is as follows: the Roman number before the full stop characterizes the base formulation, the Arabian number the type of salt (A.# inventive salt (component (a)); C-(A.#) comparative compound). Zero (“0”): no salt, but diethylene glycol.

Savinase = target: T2, Savinase (Lederbergia lenta, UniProt P29600); test: storage stability of protease (Savinase activity, Suc-AAPF-pNA substrate) in liquid formulations at 37° C.; format: biochemical; settings: Savinase 16.0 L 0.5 wt %, storage at 37° C.
T2 construct: purchased Sigma-Aldrich
T2 sequence (P29600 1-269): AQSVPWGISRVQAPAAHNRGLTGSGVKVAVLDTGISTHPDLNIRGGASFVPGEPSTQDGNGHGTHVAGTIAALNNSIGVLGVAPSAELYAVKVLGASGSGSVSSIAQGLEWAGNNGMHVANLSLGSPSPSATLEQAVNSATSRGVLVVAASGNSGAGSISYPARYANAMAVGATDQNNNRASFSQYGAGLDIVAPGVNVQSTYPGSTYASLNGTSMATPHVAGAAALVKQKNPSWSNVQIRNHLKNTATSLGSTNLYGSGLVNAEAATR
Description: as §1, §2, §3, §4, §5
Savinase activity at certain points in time as indicated in Table 3 was be determined by employing Succinyl-Ala-Ala-Pro-Phe-p-nitroanilide (Suc-AAPF-pNA, short AAPF) as substrate. pNA is cleaved from the substrate molecule by proteolytic cleavage, resulting in release of yellow color of free pNA which was determined by measuring OD405. Measurement were done at 20° C.
The proteolytic activity values provided in Table 3 were calculated referring to the 100% value determined in the reference formulation at the time 0.
as §6

[1] = base formulation I., component (a) 2.5 wt %, 1 d
[2] = base formulation I., component (a) 2.5 wt %, 3 d
[3] = base formulation I., component (a) 2.5 wt %, 6 d
[4] = base formulation I., component (a) 2.5 wt %, 10 d
[5] = base formulation I., component (a) 2.5 wt %, 15 d
[6] = base formulation I., component (a) 2.5 wt %, 20 d
[7] = base formulation I., component (a) 2.5 wt %, 25 d
[8] = base formulation I., component (a) 2.5 wt %, 30 d
[9] = base formulation I., component (a) 2.5 wt %, T0
[10] = base formulation IV., component (a) 4.0 wt %, 1 d
[11] = base formulation IV., component (a) 4.0 wt %, 3 d
[12] = base formulation IV., component (a) 4.0 wt %, 6 d
[13] = base formulation IV., component (a) 4.0 wt %, 10 d
[14] = base formulation IV., component (a) 4.0 wt %, 15 d
[15] = base formulation IV., component (a) 4.0 wt %, 20 d
[16] = base formulation IV., component (a) 4.0 wt %, 25 d
[17] = base formulation IV., component (a) 4.0 wt %, 30 d
[18] = base formulation IV., component (a) 4.0 wt %, T0
[19] = base formulation III., component (a) 2.5 wt %, 1 d
[20] = base formulation III., component (a) 2.5 wt %, 3 d
[21] = base formulation III., component (a) 2.5 wt %, 6 d
[22] = base formulation III., component (a) 2.5 wt %, 10 d
[23] = base formulation III., component (a) 2.5 wt %, 15 d
[24] = base formulation III., component (a) 2.5 wt %, 20 d
[25] = base formulation III., component (a) 2.5 wt %, 25 d
[26] = base formulation III., component (a) 2.5 wt %, 30 d
[27] = base formulation III., component (a) 2.5 wt %, T0

Structure (SMILES): C[N+](C)(C)CCO.C[N+](C)(C)CCO.O=C([O-])CC(O)(CC(=O)O)C(=O)[O-] [C-(A.17)]
- lipase activity (Lipolase; [1]): 90%
- lipase activity (Lipolase; [2]): 80%
- lipase activity (Lipolase; [3]): 70%
- lipase activity (Lipolase; [4]): 53%
- lipase activity (Lipolase; [5]): 42%
- lipase activity (Lipolase; [6]): 38%
- lipase activity (Lipolase; [7]): 33%
- lipase activity (Lipolase; [8]): 29%
- lipase activity (Lipolase; [9]): 97%
- lipase activity (Lipolase; [10]): 93%
- lipase activity (Lipolase; [11]): 86%
- lipase activity (Lipolase; [12]): 74%
- lipase activity (Lipolase; [13]): 63%
- lipase activity (Lipolase; [14]): 51%
- lipase activity (Lipolase; [15]): 46%
- lipase activity (Lipolase; [16]): 38%
- lipase activity (Lipolase; [17]): 33%
- lipase activity (Lipolase; [18]): 96%
- protease activity (Savinase; [1]): 90%
- protease activity (Savinase; [2]): 81%
- protease activity (Savinase; [3]): 70%
- protease activity (Savinase; [4]): 49%
- protease activity (Savinase; [5]): 38%
- protease activity (Savinase; [6]): 30%
- protease activity (Savinase; [7]): 23%
- protease activity (Savinase; [8]): 12%
- protease activity (Savinase; [9]): 98%
- protease activity (Savinase; [19]): 94%
- protease activity (Savinase; [20]): 83%
- protease activity (Savinase; [21]): 71%
- protease activity (Savinase; [22]): 53%
- protease activity (Savinase; [23]): 42%
- protease activity (Savinase; [24]): 34%
- protease activity (Savinase; [25]): 27%
- protease activity (Savinase; [26]): 14%
- protease activity (Savinase; [27]): 92%

Structure (SMILES): C[N+](C)(C)CCO.C[N+](C)(C)CCO.C[N+](C)(C)CCO.O=C([O-])CC(O)(CC(=O)[O-])C(=O)[O-] [C-(A.18)]
- lipase activity (Lipolase; [1]): 91%
- lipase activity (Lipolase; [2]): 84%
- lipase activity (Lipolase; [3]): 72%
- lipase activity (Lipolase; [4]): 55%
- lipase activity (Lipolase; [5]): 45%
- lipase activity (Lipolase; [6]): 39%
- lipase activity (Lipolase; [7]): 32%
- lipase activity (Lipolase; [8]): 29%
- lipase activity (Lipolase; [9]): 98%
- lipase activity (Lipolase; [10]): 91%
- lipase activity (Lipolase; [11]): 84%
- lipase activity (Lipolase; [12]): 72%
- lipase activity (Lipolase; [13]): 58%
- lipase activity (Lipolase; [14]): 49%
- lipase activity (Lipolase; [15]): 46%
- lipase activity (Lipolase; [16]): 39%
- lipase activity (Lipolase; [17]): 35%
- lipase activity (Lipolase; [18]): 95%
- lipase activity (Lipolase; base formulation VI., component (a) 4.0 wt %, 1 d): 90%
- lipase activity (Lipolase; base formulation VI., component (a) 4.0 wt %, 3 d): 83%
- lipase activity (Lipolase; base formulation VI., component (a) 4.0 wt %, 6 d): 75%
- lipase activity (Lipolase; base formulation VI., component (a) 4.0 wt %, 10 d): 58%
- lipase activity (Lipolase; base formulation VI., component (a) 4.0 wt %, 15 d): 50%
- lipase activity (Lipolase; base formulation VI., component (a) 4.0 wt %, 20 d): 48%
- lipase activity (Lipolase; base formulation VI., component (a) 4.0 wt %, 25 d): 37%
- lipase activity (Lipolase; base formulation VI., component (a) 4.0 wt %, 30 d): 32%
- lipase activity (Lipolase; base formulation VI., component (a) 4.0 wt %, T0): 96%
- protease activity (Savinase; [19]): 94%
- protease activity (Savinase; [20]): 85%
- protease activity (Savinase; [21]): 72%
- protease activity (Savinase; [22]): 54%
- protease activity (Savinase; [23]): 43%
- protease activity (Savinase; [24]): 35%
- protease activity (Savinase; [25]): 28%
- protease activity (Savinase; [26]): 14%
- protease activity (Savinase; [27]): 94%
- protease activity (Savinase; base formulation V., component (a) 4.0 wt %, 1 d): 90%
- protease activity (Savinase; base formulation V., component (a) 4.0 wt %, 3 d): 83%
- protease activity (Savinase; base formulation V., component (a) 4.0 wt %, 6 d): 64%
- protease activity (Savinase; base formulation V., component (a) 4.0 wt %, 10 d): 50%
- protease activity (Savinase; base formulation V., component (a) 4.0 wt %, 15 d): 40%
- protease activity (Savinase; base formulation V., component (a) 4.0 wt %, 20 d): 33%
- protease activity (Savinase; base formulation V., component (a) 4.0 wt %, 25 d): 25%
- protease activity (Savinase; base formulation V., component (a) 4.0 wt %, 30 d): 16%
- protease activity (Savinase; base formulation V., component (a) 4.0 wt %, T0): 83%
